This is an account of results in US11319305B2, “Pyrimidine sulfamide derivative and preparation method and medical application thereof” (SHIJIAZHUANG SAGACITY NEW DRUG DEVELOPMENT CO., LTD., priority 2017, dated 2022).

The EC50 is the concentration at which the effect is half-maximal. As usually defined, the IC50 is the concentration at which inhibition is half-maximal.

In series [1] the target is T1, Human Pregnane X Receptor (PXR) (Homo sapiens, UniProt O75469).
T1 construct: host or cells: DPX2 cells
T1 sequence (O75469 1-434): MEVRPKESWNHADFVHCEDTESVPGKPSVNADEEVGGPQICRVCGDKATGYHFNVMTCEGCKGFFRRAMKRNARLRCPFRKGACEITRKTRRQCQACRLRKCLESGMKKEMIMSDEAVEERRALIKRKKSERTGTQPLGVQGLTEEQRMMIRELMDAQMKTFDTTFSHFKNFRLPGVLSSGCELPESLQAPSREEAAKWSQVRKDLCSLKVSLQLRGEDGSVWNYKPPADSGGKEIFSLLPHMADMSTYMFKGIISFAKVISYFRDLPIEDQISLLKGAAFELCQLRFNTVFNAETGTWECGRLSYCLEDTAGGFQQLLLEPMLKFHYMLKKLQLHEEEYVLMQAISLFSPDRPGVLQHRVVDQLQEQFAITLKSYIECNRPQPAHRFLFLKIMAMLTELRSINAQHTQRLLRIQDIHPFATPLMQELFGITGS
As to the kind of experiment: Human pregnane X receptor (PXR) assay, induction of PXR-mediated CYP3A expression in DPX2 cells. In kind it is cell-based. The method, then:
Experimental Embodiment 3: Human Pregnane X Receptor (PXR) Assay
The effect of the compounds on the induction of PXR-mediated CYP3A expression was evaluated.
1. DPX2 cells were thawn under sterile conditions.
2. DPX2 cell solution was distributed in 96-well plate (100 μL/well), and the plate was placed in a 5% CO2/37° C. incubator overnight.
3. Quantitative feeding medium was thawn in a 37° C. water bath. Positive control rifampin was thawn at room temperature. A series of test compounds and positive control dilutions were prepared in quantitative feeding medium. The cells were carefully aspirated from each wells without disturbing the cells during aspiration and the medium was discarded. 100 μL of each test compound concentration was transferred to pre-labeled wells. The operation of the positive control group and the blank group were the same. The plate was placed back into the incubator for 24 hours exposure.
(1) 7 μL of Luciferin-IPA was added to […] feeding medium, the mixture was mixed by inverting, and poured into a Luciferin-IPA reagent tank.
(2) The 96-well plate was taken out from the incubator, and the media was carefully aspirated from each wells. 50 μL of the Luciferin-IPA reagent was added to each wells, and the cell plate was placed back into the incubator for 60 minutes.
(3) During incubation, the P450-Glo buffer was poured into the Luciferin detection reagent, and the mixture was mixed by inverting.
(4) The 96-well plate was taken out from the incubator, and 40 μL of solution from each well was transferred into the corresponding white 96-well plate, and the corresponding position of each wells was consistent with the original cell plate. […]
(8) After incubation with Luciferin detection reagent for 20 minutes, a photometer (set 1-5 seconds. Readout Time) was used to measure the luminescence of each wells of the white 96-well plate. […]
(10) After incubating for 60 minutes at 37° C., the original 96-well plate was taken out of the incubator. The reader was set to the fluorescence mode, the excitation wavelength was set to 380-400 nm, the emission wavelength was set to 505 nm, and the fluorescence intensity of each wells was measured.
(11) The cell plate was taken out of the enzyme reader, and 100 μL of ONE-Glo™ detection reagent was added to each wells. […]
(12) The enzyme reader was set to 5 seconds for pre-shaking and 5 seconds for wells reading, and the fluorescence intensity in each hole was measured. […]
The positive control was rifampicin, six concentrations were tested in each experiment. The data was analyzed using Prism to generate a concentration-response curve and the EC50 value of the compound was calculated.

For series [2], the target named is T2, CYP2C19 (Homo sapiens, UniProt P33261).
T2 construct: Mixed human liver microsomes (HLM) were purchased from Corning Inc; tissue Corning Inc; host or cells: pooled human liver microsomes
T2 sequence (P33261 whole entry): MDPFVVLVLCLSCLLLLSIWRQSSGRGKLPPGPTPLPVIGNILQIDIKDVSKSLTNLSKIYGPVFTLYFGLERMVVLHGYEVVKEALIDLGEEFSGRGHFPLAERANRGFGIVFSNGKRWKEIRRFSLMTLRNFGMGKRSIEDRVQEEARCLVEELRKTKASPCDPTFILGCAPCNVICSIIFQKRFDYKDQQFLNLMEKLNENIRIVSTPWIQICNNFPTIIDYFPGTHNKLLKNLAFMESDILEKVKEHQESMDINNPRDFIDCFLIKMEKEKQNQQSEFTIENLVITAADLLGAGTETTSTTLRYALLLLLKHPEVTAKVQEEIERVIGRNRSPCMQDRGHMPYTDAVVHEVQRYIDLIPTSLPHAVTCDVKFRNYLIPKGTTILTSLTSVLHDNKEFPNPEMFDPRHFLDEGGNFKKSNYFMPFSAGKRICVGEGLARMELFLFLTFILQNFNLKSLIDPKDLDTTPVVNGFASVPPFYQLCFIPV
Put plainly: Human liver microsomal cytochrome P450 isozyme inhibition assay, CYP2C19. Particulars: human liver microsomes. The format is in vitro ADME. The method, then:
(§1) Experimental Embodiment 4: Human Liver Microsomal Cytochrome P450 Isozyme Inhibition Assay The purpose of the assay was to evaluate the inhibitory activity of the samples against human liver microsomal cytochrome P450 isozyme (CYP1A2, CYP2C9, CYP2C19, CYP2D6 and CYP3A4) using the 5-in-1 probe substrate of the CYP isozyme. Mixed human liver microsomes (HLM) were purchased from Corning Inc. (Steuben, N.Y., USA) and stored below −80° C. before use. The test compound working solution which has been diluted into serial concentrations was added to an incubation system containing human liver microsomes, probe substrates and circulating system cofactors, and a control containing solvent without the test compound was used as the enzyme activity control (100%). The concentration of the metabolite produced by the probe substrate in the sample was determined using a liquid chromatography-tandem mass spectrometry (LC-MS/MS) method. Nonlinear regression analysis was performed on the average percent activity versus concentration of subjects using SigmaPlot (V.11). The IC50 value was calculated by a three-parameter or four-parameter inverse-logarithmic equation.
(Microsomes from liver hold many membrane-bound enzymes, among them those of drug oxidation.)

Series [3] has as its target T3, CYP1A2 (Homo sapiens, UniProt P05177).
T3 construct: Mixed human liver microsomes (HLM) were purchased from Corning Inc; tissue Corning Inc; host or cells: pooled human liver microsomes
T3 sequence (P05177 1-516): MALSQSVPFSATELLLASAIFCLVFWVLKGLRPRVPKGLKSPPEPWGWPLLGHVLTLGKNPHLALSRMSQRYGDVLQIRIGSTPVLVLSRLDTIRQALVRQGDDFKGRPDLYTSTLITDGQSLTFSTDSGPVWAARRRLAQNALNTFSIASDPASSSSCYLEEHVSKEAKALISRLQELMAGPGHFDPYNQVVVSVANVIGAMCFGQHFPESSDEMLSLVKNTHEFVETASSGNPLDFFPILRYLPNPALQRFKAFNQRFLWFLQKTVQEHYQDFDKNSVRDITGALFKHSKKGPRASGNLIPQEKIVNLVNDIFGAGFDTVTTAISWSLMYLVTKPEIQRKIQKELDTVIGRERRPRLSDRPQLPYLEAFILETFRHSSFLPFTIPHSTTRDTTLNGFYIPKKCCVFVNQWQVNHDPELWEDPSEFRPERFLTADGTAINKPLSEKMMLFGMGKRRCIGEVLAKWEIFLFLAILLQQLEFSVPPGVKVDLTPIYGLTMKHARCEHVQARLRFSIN
As to the kind of experiment: Human liver microsomal cytochrome P450 isozyme inhibition assay, CYP1A2. The settings on record: human liver microsomes. In kind it is in vitro ADME. As to the method: as §1

Series [4] deals with T4, CYP2C9 (Homo sapiens, UniProt P11712).
T4 construct: Mixed human liver microsomes (HLM) were purchased from Corning Inc; tissue Corning Inc; host or cells: pooled human liver microsomes
T4 sequence (P11712 whole entry): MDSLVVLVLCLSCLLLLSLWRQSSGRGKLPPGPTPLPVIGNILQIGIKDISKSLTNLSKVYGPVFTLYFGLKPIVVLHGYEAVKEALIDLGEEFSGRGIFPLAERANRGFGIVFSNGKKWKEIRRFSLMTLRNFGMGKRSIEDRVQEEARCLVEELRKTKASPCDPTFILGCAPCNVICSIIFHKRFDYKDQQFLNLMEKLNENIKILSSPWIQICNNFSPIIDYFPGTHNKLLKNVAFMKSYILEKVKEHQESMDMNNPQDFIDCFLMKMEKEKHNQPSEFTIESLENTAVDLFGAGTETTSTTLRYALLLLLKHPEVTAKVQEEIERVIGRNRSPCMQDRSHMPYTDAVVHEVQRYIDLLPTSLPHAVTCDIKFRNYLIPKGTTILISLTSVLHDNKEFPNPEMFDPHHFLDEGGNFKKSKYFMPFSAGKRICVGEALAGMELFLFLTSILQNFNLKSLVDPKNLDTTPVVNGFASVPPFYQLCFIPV
As to the kind of experiment: Human liver microsomal cytochrome P450 isozyme inhibition assay, CYP2C9. In kind it is in vitro ADME. The settings on record: human liver microsomes. The method, then:
as §1

Series [5] has as its target T5, bile salt transport pump (BSEP) (Homo sapiens, UniProt O95342).
T5 construct: purchased Solvo Biotechnology SB-BSEP-Hi5-VT; host or cells: Hi5 insect cells (read from the product name; own knowledge)
Put plainly: Inhibition test on bile salt transfer pump (BSEP), taurocholic acid uptake in BSEP-Hi5-VT vesicles. In kind it is in vitro ADME.
Protocol: Prepared with buffer A, 8.16 mM ATP and 4.08 μM taurocholic acid were contained in 12 mL buffer A.
Prepared with buffer A, 8.16 mM AMP, 4.08 μM taurocholic acid 12 mL buffer A were contained in buffer A.
A solution containing BSEP-Hi5-VT 5 μg/μL was prepared with buffer A.
The compound was diluted to 100 mM with DMSO; then serially diluted 3-fold for an 11-point dilution; the minimum concentration was 0.169 μM.
Positive reference Glyburide was diluted to 20 mM with DMSO; then serially diluted 2-fold for an 11-point dilution; the minimum concentration was 19.5
0.3 μL of a solution of the compound in DMSO or a diluted DMSO solution were transferred into corresponding wells of the compound plate using ECHO, respectively.
14.7 μL of ATP buffer was added to the compound and the corresponding wells of zero percent effect (ZPE), respectively.
14.7 μL of AMP buffer was added to the corresponding wells of 100% effect (HPE), respectively.
The plate was shaked for 10 minutes at 25° C.
15 μL of BSEP-H15-VT Vesicle solution was added to all wells, respectively, and the plate was shaked for another 40 minutes at 25° C.
6.5 μL 0.5 M ethylenediaminetetraacetic acid (EDTA) solution was added to all wells immediately, followed by addition of 65 μL of buffer B, and the whole reaction was completed.
7.95 μL of liquid was transferred to the filter plate from the compound plate at the end of the reaction using an instrument.
After placing the liquid receiving plate under the filter plate, the liquid was removed using a centrifuge and the receiving plate liquid was discarded.
9.90 μL of buffer B was added to the filter plate. After placing the liquid receiving plate under the filter plate, the liquid was removed using a centrifuge, and the receiving plate liquid was discarded, and filter plate was washed for three times in total.
The filter plate was dried overnight.
On the next day, 80 μL of methanol/water (80/20, volume ratio) solution was added to the filter plate.
The plate was shaked for 15 minutes after the filter plate was attached to the membrane.
A new liquid receiving plate was placed under the filter plate, and the filter plate was centrifuged for 5 minutes, and all liquids in the filter plate were filtrated into the receiving plate.
15 μL of internal standard solution was added to each wells in the liquid receiving plate, and the plate was sealed with a membrane.
The content of taurocholic acid in the receiving plate was detected using LC/MS/MS.
Several concentrations were tested in each experiments. The data were analyzed using Prism to generate a concentration-response curve, and IC50 values of the compounds were calculated.

Series [6] concerns human liver microsomal cytochrome P450 isozyme (CYP1A2, CYP2C9, CYP2C19, CYP2D6 and CYP3A4). Put plainly: Human liver microsomal cytochrome P450 isozyme inhibition assay, summary over the main isozymes. The settings on record: human liver microsomes. In kind it is in vitro ADME. As to the method:
as §1

Series [7] addresses T6, CYP2D6 (Homo sapiens, UniProt P10635).
T6 construct: Mixed human liver microsomes (HLM) were purchased from Corning Inc; tissue Corning Inc; host or cells: pooled human liver microsomes
As to the kind of experiment: Human liver microsomal cytochrome P450 isozyme inhibition assay, CYP2D6. In kind it is in vitro ADME. Particulars: human liver microsomes. As to the method:
as §1

The target of series [8] is T7, CYP3A4 (Homo sapiens, UniProt P08684).
T7 construct: Mixed human liver microsomes (HLM) were purchased from Corning Inc; tissue Corning Inc; host or cells: pooled human liver microsomes
T7 sequence (P08684 whole entry): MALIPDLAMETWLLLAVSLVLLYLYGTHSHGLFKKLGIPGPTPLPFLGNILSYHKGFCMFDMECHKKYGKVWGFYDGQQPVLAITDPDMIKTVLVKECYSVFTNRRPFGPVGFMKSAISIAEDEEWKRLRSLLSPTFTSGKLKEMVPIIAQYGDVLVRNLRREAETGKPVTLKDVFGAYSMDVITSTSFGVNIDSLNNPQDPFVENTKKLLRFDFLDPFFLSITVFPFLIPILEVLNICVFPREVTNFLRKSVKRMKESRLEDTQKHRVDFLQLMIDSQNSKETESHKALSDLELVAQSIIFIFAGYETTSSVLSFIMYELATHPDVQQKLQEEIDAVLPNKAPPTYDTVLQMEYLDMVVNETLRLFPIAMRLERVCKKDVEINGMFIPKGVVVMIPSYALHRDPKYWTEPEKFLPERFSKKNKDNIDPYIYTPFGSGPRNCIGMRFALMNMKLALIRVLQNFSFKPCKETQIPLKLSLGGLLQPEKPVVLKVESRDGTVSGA
As to the kind of experiment: Human liver microsomal cytochrome P450 isozyme inhibition assay, CYP3A4. In kind it is in vitro ADME. Particulars: human liver microsomes. The method, then:
as §1

Some results are limits rather than exact numbers.

T5 sequence (O95342 whole entry): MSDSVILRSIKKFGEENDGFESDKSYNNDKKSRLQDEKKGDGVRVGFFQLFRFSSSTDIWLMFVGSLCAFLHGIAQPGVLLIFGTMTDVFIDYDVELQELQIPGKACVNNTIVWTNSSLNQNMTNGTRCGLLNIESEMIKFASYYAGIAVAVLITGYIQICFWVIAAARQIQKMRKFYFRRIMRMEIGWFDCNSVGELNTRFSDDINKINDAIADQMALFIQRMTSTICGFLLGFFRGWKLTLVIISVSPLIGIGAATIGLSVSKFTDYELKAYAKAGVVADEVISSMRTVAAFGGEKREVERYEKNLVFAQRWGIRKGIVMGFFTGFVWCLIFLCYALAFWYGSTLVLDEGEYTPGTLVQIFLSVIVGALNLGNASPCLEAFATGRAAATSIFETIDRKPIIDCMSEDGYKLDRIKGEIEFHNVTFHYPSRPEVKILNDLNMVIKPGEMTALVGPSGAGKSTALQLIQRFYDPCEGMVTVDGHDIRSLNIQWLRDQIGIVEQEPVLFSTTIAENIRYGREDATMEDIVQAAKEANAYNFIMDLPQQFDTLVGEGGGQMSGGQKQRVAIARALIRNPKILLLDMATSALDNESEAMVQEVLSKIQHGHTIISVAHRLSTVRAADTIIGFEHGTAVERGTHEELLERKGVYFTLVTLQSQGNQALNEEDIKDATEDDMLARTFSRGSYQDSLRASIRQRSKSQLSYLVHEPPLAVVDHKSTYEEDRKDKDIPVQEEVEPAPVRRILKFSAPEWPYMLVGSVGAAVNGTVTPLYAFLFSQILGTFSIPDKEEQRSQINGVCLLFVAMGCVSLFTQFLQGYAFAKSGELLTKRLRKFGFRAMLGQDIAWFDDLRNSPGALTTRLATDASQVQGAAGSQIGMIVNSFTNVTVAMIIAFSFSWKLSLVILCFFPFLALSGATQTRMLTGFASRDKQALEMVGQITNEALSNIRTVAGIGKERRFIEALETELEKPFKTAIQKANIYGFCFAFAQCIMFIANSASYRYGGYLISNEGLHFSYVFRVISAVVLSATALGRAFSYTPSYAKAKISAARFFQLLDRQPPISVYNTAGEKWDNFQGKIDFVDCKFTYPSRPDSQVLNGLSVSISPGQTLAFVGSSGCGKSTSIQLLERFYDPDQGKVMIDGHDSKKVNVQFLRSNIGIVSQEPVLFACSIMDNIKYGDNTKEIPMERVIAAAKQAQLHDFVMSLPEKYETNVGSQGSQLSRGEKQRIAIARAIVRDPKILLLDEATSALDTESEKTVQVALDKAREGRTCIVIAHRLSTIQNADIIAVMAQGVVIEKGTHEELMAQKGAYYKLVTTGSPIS
T6 sequence (P10635 whole entry): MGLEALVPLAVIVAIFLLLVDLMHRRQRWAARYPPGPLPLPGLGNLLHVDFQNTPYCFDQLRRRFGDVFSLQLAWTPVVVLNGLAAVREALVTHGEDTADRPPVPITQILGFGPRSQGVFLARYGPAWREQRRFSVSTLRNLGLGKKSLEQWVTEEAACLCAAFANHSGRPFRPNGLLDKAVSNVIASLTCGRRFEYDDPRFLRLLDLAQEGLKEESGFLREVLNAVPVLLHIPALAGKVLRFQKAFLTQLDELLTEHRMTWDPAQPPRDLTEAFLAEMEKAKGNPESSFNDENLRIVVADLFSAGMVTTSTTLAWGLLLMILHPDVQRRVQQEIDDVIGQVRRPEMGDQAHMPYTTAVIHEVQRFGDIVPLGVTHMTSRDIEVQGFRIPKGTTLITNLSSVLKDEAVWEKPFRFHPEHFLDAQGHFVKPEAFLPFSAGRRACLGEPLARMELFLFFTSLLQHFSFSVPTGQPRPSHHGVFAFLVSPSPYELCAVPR

Regarding `CCCNS(=O)(=O)Nc1ncnc(OCCOc2ncc(Br)cn2)c1-c1ccc(Br)cc1` [macitentan, reference compound], in series [1], the “induction effect on PXR-mediated CYP3A expression (in words)” value was “relatively strong induction effect”. For the same compound, in series [1] (DPX2 cells, 24 hours exposure, ± is calculation error of simulation curve, read-out: EC50, induction effect on PXR-mediated CYP3A expression), the EC50 was 6.34 ± 0.17 µM. Further, the IC50 in series [2] is 31 µM; in series [3] it was 37 µM; in series [4], 7.5 µM; in series [5] (substrate taurocholic acid, read-out: IC50, inhibitory effect on the bile salt transport pump (BSEP)) it was 0.281 µM; in series [7], above 50 µM; in series [8], 23 µM. The “inhibitory effects on the isozymes CYP2C9 (in words)” value in series [4] is “moderate”. For the same compound, the “inhibitory effect on the bile salt transport pump (BSEP) (in words)” value in series [5] was “strong”. Also, in series [6], the “inhibitory effects on four main isozymes of CYP (in words)” value is “weak”.
